Reference: article PMC8949366, “Synthesis of Marine Cyclopeptide Galaxamide Analogues as Potential Anticancer Agents” (Marine Drugs, 2022)
In brackets after ≈: the same amount, converted by molar mass. Several values for one entry are separate records, joined by “and”; a condition that tells them apart may be missing. Equal entries are not always repeated. Entries after “also recorded” stand apart in the source; their conditions may differ. Where two headings read alike, the source gives them in different places. Square brackets hold non-standard residues; d marks the D form. Peptide text beside a SMILES is read from it.

Experiments:
A549 = type: cell-based, human; conditions: 72 h
Procedure: (§1) Cell culture: MCF-7/MD-MAB-231 (human breast cancer cell line ATCC HTB-22/HTB-26), Hep G2 (human liver cancer cell line ATCC HB-8065), Hela (human cervical carcinoma cell line ATCC CCL-2), A459 (human lung cancer cell line ATCC CCL-185), and HUVEC (primary umbilical vein endothelial cell line ATCC PCS-100-010) were obtained from the Jinan Department of Pathology, University School of Medicine (Jinan University, Guangzhou, China). The cells were cultured in a Modified Eagle’s Medium (DMEM) including 10% fetal bovine serum, 1% penicillin-streptomycin, and antifungal agent, and cultured under standard conditions (5% CO2 atmosphere and temperature at 37 °C). The MTT method was used to evaluate the cytotoxicities of galaxamide and its analogues on the five cancerous cells. In this experiment, the number of regulated cells was 2 × 10^3 cells/well. Then, the cells, as well as galaxamide and its analogues of different concentrations (0, 2.5, 5, and 10 μg/mL), were seeded on a 96-well cell culture plate and cultured in a 37 °C, 5% CO2 incubator for 72 h. After that, 20 µL/well of MTT solution (5 mg/mL phosphate-buffered saline) was added and incubated for 5 h. The medium was discarded and replaced with 100 µL/well of DMSO to dissolve the formazan salt. The color intensity of the cell culture at 570 nm was measured using a microplate spectrophotometer (SpectroAma™ 250, Winooski, VT, USA).

MCF-7 = type: cell-based, human; conditions: 72 h
Procedure: as §1

HUVEC = type: cell-based, human; conditions: 72 h
Procedure: as §1

Hela = type: cell-based, human; conditions: 72 h
Procedure: as §1

HepG2 = type: cell-based, human; conditions: 72 h
Procedure: as §1

MD-MBA-231 = type: cell-based, human; conditions: 72 h
Procedure: as §1

MCF-7 cells [1] = assay: Hoechst 33,342 staining of nuclear morphology; type: cell-based, human; conditions: 72 h
Procedure: The morphological alteration of MCF-7 cells was analyzed by the method of Hoechst 33,342 staining (Figure 5). […] The pyknotic nuclei increased with the increasing concentration of these compounds.
[…] After that, the cell culture was washed with 1 mL of PBS and then added with 3 mL of 4% paraformaldehyde solution for 15 min. Then, 1 mL of the prepared Hoechst 33,342 staining solution was added. The resulting mixture was incubated at room temperature for 15 min in the dark.

MCF-7 cells [2] = assay: Annexin V-FITC/PI double staining apoptosis, flow cytometry; type: cell-based, human; conditions: 0, 2.5, 5, 10 µg/mL, 72 h
Procedure: The Annexin V-FITC/PI double staining method was used to analyze the changes in the apoptosis of MCF-7 cells after 72 h of galaxamide, Z-3, and Z-6 exposure. […] At low concentrations, the effects of all the tested compounds were not obvious. When the concentration reached 10 μg/mL, the apoptotic effects of galaxamide, Z-3, and Z-6 on MCF-7 cells were more obvious in the late apoptotic state.
(§2) The concentration of 1 × 10^4 cells per well of MCF-7 cells were seeded in 96-well plates. The cell cultures were added to the compounds with a concentration of 0, 2.5, 5, and 10 µg/mL, and incubated for 72 h. After that, 5 µL of Annexin V-fluorescein isothiocyanate (FITC) and 5 µL of PI were added for dual staining of the cells for analysis by FACS flow cytometry. Cell cycles and apoptotic cells were determined by counting the FITC-positive and PI-negative fractions.
The apoptotic cells were quantified according to the instructions provided in an Annexin V-FITC (Sigma-Aldrich, St. Louis, MO, USA) cell apoptosis assay kit. Briefly, about 1.5 × 10^5 cells were plated in 96-well plates and treated with galaxamide and its representative analogues (0, 2.5, 5, and 10 µg/mL) for 48 h. The cells were then resuspended in a […] binding buffer. Afterward, […] of annexin V-fluorescein isothiocyanate (FITC) was added, followed by incubation in darkness at room temperature for 10 min. The cells were again resuspended in […] binding buffer and stained with […] PI. The prepared cells were then analyzed using a flow cytometry (Coulter Epics Elite, Miami, FL, USA). The cells in the FITC-positive and PI-negative fractions were regarded as apoptotic cells.

MCF-7 cells [3] = assay: Cell cycle distribution by propidium iodide staining / flow cytometry; type: cell-based, human; conditions: 0, 2.5, 5, 10 µg/mL, 72 h
Procedure: Therefore, propidium iodide (PI) staining method was used to further investigate the changes in the cell cycle distribution of MCF-7. In particular, MCF-7 cells were exposed to galaxamide, Z-3, and Z-6 with concentrations of 0, 2.5, 5, and 10 µg/mL for 72 h. Generally, the main effects of galaxamide, Z-3, and Z-6 on MCF-7 cells were in the G0/G1 phase. There was no obvious sub diploid peak in flow cytometry.
as §2

[4] = amide bond, 15-membered ring, PyBOP/DIEA, DCM, 0.375 mM, 25.0 °C

Structure (SMILES) | IC50 A549 (A549) [µg/mL] | IC50 MCF-7 (MCF-7) [µg/mL] | IC50 HUVEC (HUVEC) [µg/mL] | IC50 Hela (Hela) [µg/mL] | IC50 HepG2 (HepG2) [µg/mL] | IC50 MD-MBA-231 (MD-MBA-231) [µg/mL] | further results
CC(C)C[C@@H]1NC(=O)[C@@H]2CCCN2C(=O)[C@H](CC(C)C)NC(=O)[C@@H]2CCCN2C(=O)[C@@H](CC(C)C)NC1=O [Compound Z-4, Cyclo (Leu-Pro-D-Leu-Pro-Leu)] (cyclo(LPL[dL]P)) | 9.85 ± 0.95 (≈ 18.5 µM) | 4.88 ± 0.58 (≈ 9.14 µM) | >40 | 7.38 ± 0.83 (≈ 13.8 µM) | 15.23 ± 1.14 (≈ 28.5 µM) | 22.09 ± 1.12 (≈ 41.4 µM) | 
CC(C)C[C@@H]1NC(=O)[C@@H]2CCCN2C(=O)[C@@H](CC(C)C)NC(=O)[C@@H](CC(C)C)NC(=O)[C@@H]2CCCN2C1=O [Compound Z-6, Cyclo (D-Leu-Pro-Leu-Pro-D-Leu)] (cyclo(LP[dL][dL]P)) | 5.96 ± 0.41 (≈ 11.2 µM) | 1.65 ± 0.30 (≈ 3.09 µM) | 38.72 ± 0.67 (≈ 72.5 µM) | 5.69 ± 0.37 (≈ 10.7 µM) | 2.91 ± 0.17 (≈ 5.45 µM) | 4.59 ± 0.27 (≈ 8.6 µM) | Nuclear morphology of MCF-7 cells (in words) (MCF-7 cells [1]): the morphology of the nuclei was significantly changed; Apoptosis of MCF-7 cells (in words) (MCF-7 cells [2]): significantly higher than those of galaxamide; also recorded: concentration-dependent apoptosis; Effect on cell cycle of MCF-7 (in words) (MCF-7 cells [3]): mainly blocked the growth of cells in the G0/G1 phase
CC(C)C[C@@H]1NC(=O)[C@@H]2CCCN2C(=O)[C@@H](CC(C)C)NC(=O)[C@@H](CC(C)C)NC(=O)[C@@H]2CCCN2C1=O [Cyclo (D-Leu-Pro-Leu-Pro-D-Leu)] |  |  |  |  |  |  | ring closure, yield after HPLC ([4]; from H-dLeu-Pro-Leu-Pro-dLeu-OH?): 34.5%
CC(C)C[C@@H]1NC(=O)[C@@H]2CCCN2C(=O)[C@@H](CC(C)C)NC(=O)[C@@H]2CCCN2C(=O)[C@H](CC(C)C)NC1=O [Cyclo (Leu-Pro-D-Leu-Pro-Leu)] |  |  |  |  |  |  | ring closure, yield after HPLC ([4]; from H-Leu-Pro-dLeu-Pro-Leu-OH?): 36.4%
CC(C)C[C@H]1NC(=O)[C@@H]2CCCN2C(=O)[C@@H](CC(C)C)NC(=O)[C@@H]2CCCN2C(=O)[C@@H](CC(C)C)NC1=O [Compound Z-8, Cyclo (D-Leu-Pro-D-Leu-Pro-D-Leu)] (cyclo(P[dL]P[dL][dL])) | 15.88 ± 1.42 (≈ 29.8 µM) | 7.82 ± 1.18 (≈ 14.7 µM) | >40 | 7.97 ± 0.61 (≈ 14.9 µM) | 9.00 ± 0.83 (≈ 16.9 µM) | 20.16 ± 2.24 (≈ 37.8 µM) | 
CC(C)C[C@@H]1NC(=O)[C@H](CC(C)C)N(C)C(=O)[C@H](CC(C)C)NC(=O)[C@@H]2CCCN2C(=O)[C@H](CC(C)C)NC1=O [Compound Z-1, Cyclo (Leu-N-Me-Leu-Leu-Pro-Leu)] | 4.92 ± 0.84 (≈ 8.73 µM) | 5.85 ± 1.28 (≈ 10.4 µM) | >40 | 11.56 ± 0.65 (≈ 20.5 µM) | 7.57 ± 0.17 (≈ 13.4 µM) | 17.81 ± 0.60 (≈ 31.6 µM) | 
CC(C)C[C@H]1NC(=O)[C@@H]2CCCN2C(=O)[C@@H](CC(C)C)NC(=O)[C@@H]2CCCN2C(=O)[C@@H](CC(C)C)NC1=O [Cyclo (D-Leu-Pro-D-Leu-Pro-D-Leu)] |  |  |  |  |  |  | ring closure, yield after HPLC ([4]; from H-dLeu-Pro-dLeu-Pro-dLeu-OH?): 46.2%
CC(C)C[C@@H]1NC(=O)[C@@H]2CCCN2C(=O)[C@H](CC(C)C)NC(=O)[C@@H]2CCCN2C(=O)[C@H](CC(C)C)NC1=O [Compound Z-2, Cyclo (Leu-Pro-Leu-Pro-Leu)] (cyclo(LLPLP)) | 7.97 ± 2.06 (≈ 14.9 µM) | 4.68 ± 1.22 (≈ 8.77 µM) | >40 | 14.50 ± 0.36 (≈ 27.2 µM) | 11.95 ± 0.64 (≈ 22.4 µM) | 14.45 ± 1.10 (≈ 27.1 µM) | 
CC(C)C[C@@H]1NC(=O)[C@@H]2CCCN2C(=O)[C@@H](CC(C)C)NC(=O)[C@@H]2CCCN2C(=O)[C@@H](CC(C)C)NC1=O [Cyclo (Leu-Pro-D-Leu-Pro-D-Leu)] |  |  |  |  |  |  | ring closure, yield after HPLC ([4]; from H-dLeu-Pro-dLeu-Pro-Leu-OH?): 54.6%
CC(C)C[C@@H]1NC(=O)[C@@H]2CCCN2C(=O)[C@H](CC(C)C)NC(=O)[C@@H]2CCCN2C(=O)[C@H](CC(C)C)NC1=O [Cyclo (Leu-Pro-Leu-Pro-Leu)] |  |  |  |  |  |  | ring closure, yield after HPLC ([4]; from H-Leu-Pro-Leu-Pro-Leu-OH?): 35.5% and 53.9%
CC(C)C[C@@H]1NC(=O)[C@@H]2CCCN2C(=O)[C@@H](CC(C)C)NC(=O)[C@@H]2CCCN2C(=O)[C@@H](CC(C)C)NC1=O [Compound Z-7, Cyclo (Leu-Pro-D-Leu-Pro-D-Leu)] (cyclo(L[dL]P[dL]P)) | 9.97 ± 1.00 (≈ 18.7 µM) | 13.28 ± 3.28 (≈ 24.9 µM) | >40 | 18.21 ± 1.35 (≈ 34.1 µM) | 13.85 ± 1.99 (≈ 26 µM) | 16.52 ± 1.70 (≈ 31 µM) | 
CC(C)C[C@@H]1NC(=O)[C@@H]2CCCN2C(=O)[C@@H](CC(C)C)NC(=O)[C@@H]2CCCN2C(=O)[C@H](CC(C)C)NC1=O [Compound Z-5, Cyclo (Leu-Pro-Leu-Pro-D-Leu)] (cyclo(LLP[dL]P)) | 9.50 ± 1.13 (≈ 17.8 µM) | 13.43 ± 1.96 (≈ 25.2 µM) | >40 | 12.12 ± 0.95 (≈ 22.7 µM) | 14.98 ± 0.93 (≈ 28.1 µM) | 8.48 ± 1.12 (≈ 15.9 µM) | 
CC(C)C[C@@H]1NC(=O)[C@@H](CC(C)C)NC(=O)[C@@H]2CCCN2C(=O)[C@H](CC(C)C)NC(=O)[C@@H]2CCCN2C1=O [Compound Z-3, Cyclo (Leu-Pro-Leu-Pro-Leu)] (cyclo(LPLP[dL])) | 6.43 ± 0.43 (≈ 12 µM) | 2.25 ± 0.42 (≈ 4.22 µM) | >40 | 5.57 ± 0.45 (≈ 10.4 µM) | 5.05 ± 0.45 (≈ 9.46 µM) | 6.34 ± 0.60 (≈ 11.9 µM) | Nuclear morphology of MCF-7 cells (in words) (MCF-7 cells [1]): the morphology of the nuclei was significantly changed; Apoptosis of MCF-7 cells (in words) (MCF-7 cells [2]): significantly higher than those of galaxamide; also recorded: concentration-dependent apoptosis; Effect on cell cycle of MCF-7 (in words) (MCF-7 cells [3]): mainly blocked the growth of cells in the G0/G1 phase
CC(C)C[C@@H]1NC(=O)[C@H](CC(C)C)N(C)C(=O)[C@H](CC(C)C)NC(=O)[C@@H]2CCCN2C(=O)[C@H](CC(C)C)NC1=O [Cyclo (Leu-N-Me-Leu-Leu-Pro-Leu)] |  |  |  |  |  |  | ring closure, yield after HPLC ([4]; from H-Leu-Pro-Leu-MeLeu-Leu-OH): 40.7%
CC(C)C[C@@H]1NC(=O)[C@@H]2CCCN2C(=O)[C@H](CC(C)C)NC(=O)[C@@H]2CCCN2C(=O)[C@@H](CC(C)C)NC1=O [Cyclo (Leu-Pro-Leu-Pro-D-Leu)] |  |  |  |  |  |  | ring closure, yield after HPLC ([4]; from H-dLeu-Pro-Leu-Pro-Leu-OH?): 58.9%
